# System: Jurkat cells
# Test: Jurkat cell proliferation, MTS method: compound alone or combined with bleomycin
# Assay type: cell-based
# Set-up: key: ┌++┘ indicates observation of remarkable enhancement; ┌+┘ indicates moderated enhancement
# Settings: compound plus bleomycin 5 μg/ml or 10 μg/ml, 36 hours, survival rate vs DMSO control
# Method: By using aforementioned synthetic compounds, effects on proliferation of Jurkat cells by sole administration and inhibitory effects on cell proliferation by administration in combination with bleomycin were examined. Materials and methods are as follows. Jurkat cells obtained from Dainippon Pharmaceutical Co. Ltd. were inoculated at about 10,000 cells per well in a 96 well culture plate, and incubated in 10% bovine fetal serum (Irvine Scientific) supplemented with RPMI1640 (ICN) medium in 5% CO2 incubator at 37° C. […] 36 hours after the incubation, the number of living cells was counted by the MTS method.
# More specifically, 20 μl of CellTiter96™ AQueous One Solution (Promega) was added per one well, and after the cells were incubated for additional one hour, an absorbance at 490 nm was measured by using a microplate reader. The same culture added with DMSO as a solvent at final concentration of 0.25% was used as a control. The number of cells in the control was considered as 100% survival rate, and for each compound, survival rates by sole administration or a combined administration were calculated. […] In the table, ┌++┘ indicates observation of remarkable enhancement, ┌+┘ indicates moderated enhancement.
row,SMILES,Activity (enhancement of inhibitory effect on cell proliferation in combination with bleomycin)
1,"Cc1ccc(S(=O)(=O)Oc2cccc3c(S(=O)(=O)NCc4ccc(C(C)(C)C)cc4)cccc23)cc1 [Compound 1-7, N-[4-(tert-Butyl)benzyl]-5-{[(4-methylphenyl)sulfonyl]oxy}naphthalene-1-sulfonamide]",++
2,"O=S(=O)(NCc1cccc2ccccc12)c1cccc2c(O)cccc12 [Compound 2-19, N-(1-Naphthylmethyl)-5-hydroxynaphthalene-1-sulfonamide]",++
3,"CC(=O)Oc1cccc2cc(S(=O)(=O)NCc3ccc(C)o3)ccc12 [Compound 3-9, 5-Acetyloxy-N-[(5-methylfuran-2-yl)methyl]naphthalene-2-sulfonamide]",+
4,"O=S(=O)(NCCc1ccccc1)c1ccc2c(O)cccc2c1 [Compound 4-13, N-(2-Phenethyl)-5-hydroxynaphthalene-2-sulfonamide]",+
5,"O=S(=O)(NCc1ccc(Cl)cc1Cl)c1cccc2c(O)cccc12 [Compound 2-3, N-(2,4-Dichlorobenzyl)-5-hydroxynaphthalene-1-sulfonamide]",++
6,"CC(C)(C)c1ccc(CNS(=O)(=O)c2ccc3c(O)cccc3c2)cc1 [Compound 4-4, N-[4-(tert-Butyl)benzyl]-5-hydroxynaphthalene-2-sulfonamide]",++
7,"Cc1ccc(S(=O)(=O)Oc2cccc3c(S(=O)(=O)N(C)Cc4ccccc4)cccc23)cc1 [Compound 1-27, N-Benzyl-N-methyl-5-{[(4-methylphenyl)sulfonyl]oxy}naphthalene-1-sulfonamide]",+
8,"CC(=O)Oc1cccc2cc(S(=O)(=O)NCc3ccccc3)ccc12 [Compound 3-1, 5-Acetyloxy-N-benzylnaphthalene-2-sulfonamide]",+
9,"Cc1ccc(S(=O)(=O)Oc2cccc3c(S(=O)(=O)NCc4c(F)cccc4F)cccc23)cc1 [Compound 1-2, N-(2,6-Difluorobenzyl)-5-{[(4-methylphenyl)sulfonyl]oxy}naphthalene-1-sulfonamide]",+
10,"COc1cccc(CNS(=O)(=O)c2ccc3c(O)cccc3c2)c1OC [Compound 4-6, N-(2,3-Dimethoxybenzyl)-5-hydroxynaphthalene-2-sulfonamide]",+
